Experimental data as given in patent publication US20010016643A1, “Peptide derivatives” (priority 1995, published 2001).
Residues, ends and D or L forms follow the SMILES beside them.

What was measured:
[1] = Lipophilicity relative to human insulin (k′rel) by RP-HPLC; type: physicochemical; details: LiChrosorb RP18 HPLC, isocratic elution, sodium phosphate buffer pH 7.3/acetonitrile
Experimental: The lipophilicity of peptides and peptide derivatives relative to human insulin, k′rel, was measured on a LiChrosorb RP18 (5 μm, 4×250 mm) HPLC column by isocratic elution at […] using mixtures of A) 0.1 M sodium phosphate buffer, pH 7.3, containing 10% acetonitrile, and B) 50% acetonitrile in water as eluents. The elution was monitored by following the UV absorption of the eluate at 214 nm. Void time, t0, was found by injecting 0.1 mM sodium nitrate. Retention time for human insulin, tinsulin was adjusted to at least 2t0 by varying the ratio between the A and B solutions. k′rel=(tderivative−t0 /(tinsulin−t0).

[2] = Blood glucose in rabbits pretreated with Insulin Actrapid after SC injection of glucagon or derivative; type: in vivo
Experimental: The resulting solution was sterilized by filtration and transferred to a vial.
Blood was sampled at times: −60, 0, 15, 30, 60, 120, 180 and 240 min, and the glucose concentration determined by the hexokinase method.

CCCC[C@H](NC=O)C(=O)N[C@@H](CC(C)C)C(=O)N[C@@H](Cc1ccccc1)C(=O)N[C@@H](CCCC)C(=O)N[C@@H](Cc1ccc(O)cc1)C(=O)N[C@@H](CCCCN)C(=O)O [For-Nle-Leu-Phe-Nle-Tyr-Lys-OH] (HELM PEPTIDE1{[O=C[*:2]].[Nle].L.F.[Nle].Y.K}$$$$V2.0)
lipophilicity relative to human insulin, k′rel [1]: 2.3

Lys^30 (N^ε-decanoyl) glucagon [Example 6]
blood glucose concentration ([2]; 15 min after SC injection): 79 mg glucose/100 ml | blood glucose concentration ([2]; 30 min after SC injection): 93 mg glucose/100 ml | blood glucose concentration ([2]; 60 min after SC injection): 114 mg glucose/100 ml | blood glucose concentration ([2]; 120 min after SC injection): 112 mg glucose/100 ml | blood glucose concentration ([2]; 180 min after SC injection): 116 mg glucose/100 ml | blood glucose concentration ([2]; 240 min after SC injection): 110 mg glucose/100 ml | blood glucose raising effect ([2]; SC, compared with glucagon): retained in Lys^30(Nε-decanoyl) glucagon but with a prolonged action | blood glucose concentration ([2]; time 0 min (SC injection of test substance)): 51 mg glucose/100 ml | blood glucose concentration ([2]; time −60 min (at Insulin Actrapid 2 IU/animal, before test substance)): 94 mg glucose/100 ml
